Patent US11414426B2, “Treatment of skin disorders” (PIQUR THERAPEUTICS AG, priority 2017, dated 2022)
Marks after values point to notes of the source that are not given here.

Legend:
pPKB S473 in A2058 cells = test: In-cell Western blot, pPKB S473; type: cell-based; settings: Homo sapiens, A2058, 1 h, 1 hour treatment, normalized to α-tubulin
Experimental: (§1) Cells are fixed with 4% paraformaldehyde for 30 minutes at room temperature, washed 2 times with 1% BSA in PBS, permeabilized with 0.1% Triton X-100 in PBS/1% BSA for 30 minutes at room temperature and blocked with 5% goat serum in PBS/1% BSA/0.1% Triton X-100 for 30 minutes at room temperature. […] Cells are washed 3 times 5 minutes with PBS/1% BSA/0.1% triton and plate scanned with the Odyssey Infrared Scanning system using both 700 and 800 nm channels. […] To correct for background staining in the data analysis wells are treated only with secondary antibodies.
(§2) For data analysis the mean background signal from channel 700 nm and 800 nm are subtracted from each signal in channel 700 nm and 800 nm, respectively.
(§3) IC50 values of each compound are determined by plotting the normalized pPBK S473 and pS6 S235/S236 signals, respectively, versus the compound concentrations (in logarithmic scale) and then by fitting a sigmoidal dose-response curve with variable slope to the data using GraphPad™ Prism.

[1] = system: pS6 S235/S236 in A2058 cells; test: In-cell Western blot, pS6 S235/S236; type: cell-based; settings: 1 hour treatment, normalized to α-tubulin
Experimental: as §1, §2, §3

[2] = molecular target: T1, N-terminally GST-tagged mTOR (truncated version: amino acids 1360-2549) (Homo sapiens, UniProt P42345); test: In vitro mTOR binding assay (LanthaScreen TR-FRET); settings: 10 nM Tracer 314, 30 min RT
T1 construct: truncated version: amino acids 1360-2549; purchased Life Technologies PR8683B
T1 sequence (P42345 1360-2549): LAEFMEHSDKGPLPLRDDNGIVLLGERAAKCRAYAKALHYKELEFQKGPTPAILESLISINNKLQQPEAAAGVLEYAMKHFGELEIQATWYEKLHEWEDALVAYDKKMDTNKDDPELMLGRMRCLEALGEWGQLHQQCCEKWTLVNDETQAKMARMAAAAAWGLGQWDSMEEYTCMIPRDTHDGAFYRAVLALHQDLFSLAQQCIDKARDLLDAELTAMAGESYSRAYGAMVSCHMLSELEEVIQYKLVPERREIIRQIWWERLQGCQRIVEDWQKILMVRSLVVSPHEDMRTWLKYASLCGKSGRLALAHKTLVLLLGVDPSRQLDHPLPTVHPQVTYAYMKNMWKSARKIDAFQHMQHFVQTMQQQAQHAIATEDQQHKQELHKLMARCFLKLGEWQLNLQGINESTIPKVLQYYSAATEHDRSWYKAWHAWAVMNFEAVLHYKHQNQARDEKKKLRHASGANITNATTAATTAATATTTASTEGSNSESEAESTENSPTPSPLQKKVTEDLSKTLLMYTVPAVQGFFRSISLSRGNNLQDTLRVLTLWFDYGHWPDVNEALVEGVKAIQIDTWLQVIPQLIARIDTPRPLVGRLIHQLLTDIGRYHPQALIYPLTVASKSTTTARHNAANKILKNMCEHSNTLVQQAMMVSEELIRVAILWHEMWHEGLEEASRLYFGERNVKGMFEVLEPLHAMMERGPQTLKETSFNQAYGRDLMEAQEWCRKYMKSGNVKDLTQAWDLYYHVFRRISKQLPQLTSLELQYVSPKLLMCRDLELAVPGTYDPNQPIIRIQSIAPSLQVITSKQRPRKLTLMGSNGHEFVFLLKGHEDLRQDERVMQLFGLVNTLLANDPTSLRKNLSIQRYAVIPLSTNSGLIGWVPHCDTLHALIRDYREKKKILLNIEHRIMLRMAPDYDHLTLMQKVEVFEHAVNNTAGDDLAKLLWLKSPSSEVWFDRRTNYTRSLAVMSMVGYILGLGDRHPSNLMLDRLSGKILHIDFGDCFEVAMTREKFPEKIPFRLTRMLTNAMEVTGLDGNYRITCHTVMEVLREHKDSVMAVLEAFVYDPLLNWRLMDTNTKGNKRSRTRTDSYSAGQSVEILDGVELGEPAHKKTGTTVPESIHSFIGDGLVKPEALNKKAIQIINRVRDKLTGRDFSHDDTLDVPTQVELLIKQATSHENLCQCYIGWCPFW
Experimental: In Vitro mTOR Binding Assay
A 10-point 4-fold serial dilution (highest concentration at 10 μmol/L and lowest concentration at 40 pmol/L) of each compound was tested for mTOR binding in duplicate in a 384-well plate. […] After 30 min incubation at RT, time-resolved FRET was measured with a Synergy 4 multi-mode microplate reader (Biotek Instruments) using the following settings: 100 microsecs delay before data collection, 200 microsecs time for data collection, 10 measurements per data point.
IC50 values of each compound were determined by plotting the emission ratio versus the compound concentrations (in logarithmic scale) and then by fitting a sigmoidal dose-response curve with variable slope to the data using GraphPad™ Prism.

[3] = Stress stability in propyleneglycol at 60° C. (HPLC); type: physicochemical; settings: 1% in propyleneglycol, 72 h
Experimental: The fraction of residual test item was determined by HPLC. […] During the observation period of 72 hrs.
Equal concentrations (1%) of the test items in propyleneglycol were heated to 60° C. and the fraction of residual test item was determined by HPLC.

[4] = Ex vivo pig skin penetration, formulations in 80% SBECD; type: in vitro ADME
From the text: The control formulation Aldara (5% imiquimod) was applied to detect variations in skin permeability (local variability in the same animal and inter-subject variability). The stratum corneum was removed by tape stripping to avoid contamination during the biopsy extraction. […] One biopsy was taken from each control site. Additionally, 5 blank samples were taken.

[5] = Ex vivo pig skin PK profile, propylene glycol formulations; type: in vitro ADME
From the text: Excised pig skin was placed in a climate chamber to control temperature and humidity. […] Before biopsies were taken the stratum corneum was removed by tape stripping and biopsies consisted of the remaining epidermis and entire dermis.

[6] = In vivo pig skin penetration; settings: living pig, single topical application, propylene glycol preparations

Q: For `Nc1cc(C(F)(F)F)c(-c2cc(N3CCOCC3)nc(N3CCOCC3)n2)cn1` [BKM 120], which IC50 (pPKB S473 in A2058 cells) is on record?
A: 0.39 µM

Q: What about the IC50 [1] of the same compound?
A: 0.64 µM

Q: Which IC50 [2] does the source give for `C[C@H]1COCCN1c1nc(-c2cnc(N)cc2C(F)F)nc(N2CCOC[C@@H]2C)n1` [Compound 6] here?
A: 0.023 µM

Q: For `CO[C@H]1C[C@@H]2CC[C@@H](C)[C@@](O)(O2)C(=O)C(=O)N2CCCC[C@H]2C(=O)O[C@H]([C@H](C)C[C@@H]2CC[C@@H](O)[C@H](OC)C2)CC(=O)[C@H](C)/C=C(\C)[C@@H](O)[C@@H](OC)C(=O)[C@H](C)C[C@H](C)/C=C/C=C/C=C/1C` [Sirolimus], which “degraded (fraction of test item lost, HPLC)” value [3] is on record?
A: 39%

Q: What does the source list for `Nc1cc(C(F)F)c(-c2nc(N3C4CCC3COC4)nc(N3C4CCC3COC4)n2)cn1` [Compound 3, 5-(4-(3-oxa-8-azabicyclo[3.2.1]octan-8-yl)-6-(3-oxa-8-azabicyclo[3.2.1]octan-8-yl)-1,3,5-triazin-2-yl)-4-(difluoromethyl)pyridin-2-amine]?
A: intrinsic penetration properties in comparison with Aldara (5% imiquimod) ([4]; ex vivo pig skin): slightly lower; penetration into pig skin (lower epidermis and dermis) ([4]; ex vivo, 1% experimental formulations, 80% SBECD): penetrated into pig skin (lower epidermis and dermis) to a significant extent; skin concentration / skin PK profile ([5]; 1% in 100% PG): comparable to 1*; drug concentrations in the lower epidermis and dermis ([5]; 1% preparations containing propylene glycol, vs Aldara): high drug concentrations in the lower epidermis and dermis; levels in epidermis and dermis after tape stripping [6]: significant levels
